Data from ChEMBL document CHEMBL4406911, “Discovery of Amino-cyclobutarene-derived Indoleamine-2,3-dioxygenase 1 (IDO1) Inhibitors for Cancer Immunotherapy” (ACS Med Chem Lett, 2019).
pEC50, pIC50: −log10 of the molar value.

Key:
[1] = biological target: T1, Indoleamine 2,3-dioxygenase 1 (Homo sapiens, UniProt P14902); assay: Inhibition of recombinant His-tagged IDO1 (unknown origin) expressed in Escherichia coli preincubated for 30 mins followed by substrate tryptophan addition and measured after 60 mins by fluorescence based assay
T1 sequence (P14902 whole entry): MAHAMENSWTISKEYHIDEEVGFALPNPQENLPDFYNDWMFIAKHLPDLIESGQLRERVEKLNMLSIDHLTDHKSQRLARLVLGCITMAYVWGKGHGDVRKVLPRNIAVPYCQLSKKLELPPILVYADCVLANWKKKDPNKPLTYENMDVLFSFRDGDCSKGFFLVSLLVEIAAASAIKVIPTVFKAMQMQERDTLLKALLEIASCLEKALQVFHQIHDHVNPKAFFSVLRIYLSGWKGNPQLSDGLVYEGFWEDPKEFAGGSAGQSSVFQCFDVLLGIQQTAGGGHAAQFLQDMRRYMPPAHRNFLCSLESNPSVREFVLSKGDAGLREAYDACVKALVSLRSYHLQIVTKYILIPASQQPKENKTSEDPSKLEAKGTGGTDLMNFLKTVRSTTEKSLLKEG

[2] = biological target: T1, Indoleamine 2,3-dioxygenase 1; assay: Inhibition of IDO1 in human HeLa cells stimulated with IFNgamma using L-tryptophan as substrate incubated for 48 hrs by fluorescence based assay; format: cell-based
[3] = Lipophilicity, log D of compound at pH 7 by HPLC analysis; format: physicochemical; conditions: buffer
[4] = Intrinsic clearance in rat; format: ADME
[5] = MRT in rat; format: ADME; conditions: in vivo
[6] = Total clearance in rat; format: ADME; conditions: in vivo
[7] = Clearance in human Hepatocyte; format: ADME, cell-based; conditions: hepatocytes, read-out: CLH
EMT6 [8] = assay: Antitumor activity against mouse EMT6 cells xenografted in BALB/c mouse assessed as reduction in tumor volume at 100 mg/kg, po bid and measured for weekly twice relative to control; format: functional; set-up: scale not given: the % may be the effect or the level left
CYP450 = CYP450 (Homo sapiens, UniProt P04798+P05177+P05181+P08684+P10632+P10635+P11509+P11712+P13584+P20813+P20815+P20853+P24462+P24903+P33260+P33261+P51589+P78329+P98187+Q02928+Q08477+Q16678+Q16696+Q5TCH4+Q6VVX0+Q7Z449+Q8TAV3+Q96SQ9+Q9HB55); assay: Inhibition of CYP450 (unknown origin); format: ADME, protein assay
[9] = Toxicity in rat assessed as adverse event; conditions: in vivo
[10] = Unbound clearance in rat; format: ADME; conditions: in vivo
[11] = biological target: Tryptophan 2,3-dioxygenase (Homo sapiens, UniProt P48775); assay: Inhibition of TDO in human SW480 cells incubated for 48 hrs using L-tryptophan as substrate by fluorescence based assay; format: cell-based
Tryptophan 2,3-dioxygenase, sequence (P48775 whole entry): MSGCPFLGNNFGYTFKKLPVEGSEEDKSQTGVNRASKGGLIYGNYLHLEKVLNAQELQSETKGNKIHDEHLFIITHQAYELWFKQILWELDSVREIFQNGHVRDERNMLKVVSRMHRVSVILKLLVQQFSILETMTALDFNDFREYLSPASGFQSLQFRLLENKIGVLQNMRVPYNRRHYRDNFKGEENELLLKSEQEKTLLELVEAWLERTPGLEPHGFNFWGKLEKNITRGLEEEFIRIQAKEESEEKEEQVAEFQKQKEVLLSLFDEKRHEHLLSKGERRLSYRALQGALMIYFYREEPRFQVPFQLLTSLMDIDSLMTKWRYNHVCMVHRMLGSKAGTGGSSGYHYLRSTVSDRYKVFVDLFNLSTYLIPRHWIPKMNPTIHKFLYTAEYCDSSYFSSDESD

[12] = Chemical stability of compound in 0.1 N HCl assessed as parent compound remaining measured after 24 hrs; format: physicochemical; conditions: read-out: Stability
[13] = Oral bioavailability in rat; format: ADME, organism-based; conditions: in vivo
[14] = biological target: T2, Nuclear receptor subfamily 1 group I member 2 (Homo sapiens, UniProt O75469); assay: Activation of PXR (unknown origin)
T2 sequence (O75469 whole entry): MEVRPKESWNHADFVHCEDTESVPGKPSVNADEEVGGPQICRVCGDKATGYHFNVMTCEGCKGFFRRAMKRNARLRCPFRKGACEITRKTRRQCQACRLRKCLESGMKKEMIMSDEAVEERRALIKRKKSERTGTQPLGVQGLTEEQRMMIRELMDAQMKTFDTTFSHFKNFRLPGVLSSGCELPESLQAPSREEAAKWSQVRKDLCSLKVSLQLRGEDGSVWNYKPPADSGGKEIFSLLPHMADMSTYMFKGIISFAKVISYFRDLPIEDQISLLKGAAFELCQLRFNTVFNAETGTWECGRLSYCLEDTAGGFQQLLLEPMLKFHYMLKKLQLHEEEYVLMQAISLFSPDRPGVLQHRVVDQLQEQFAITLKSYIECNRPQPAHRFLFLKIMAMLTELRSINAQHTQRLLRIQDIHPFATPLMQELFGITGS

[15] = biological target: Indoleamine 2,3-dioxygenase 1 (Rattus norvegicus, UniProt Q9ERD9); assay: Inhibition of rat IDO1 preincubated for 30 mins followed by substrate tryptophan addition and measured after 60 mins by fluorescence based assay
Indoleamine 2,3-dioxygenase 1 (Rattus norvegicus, UniProt Q9ERD9), sequence (Q9ERD9 whole entry): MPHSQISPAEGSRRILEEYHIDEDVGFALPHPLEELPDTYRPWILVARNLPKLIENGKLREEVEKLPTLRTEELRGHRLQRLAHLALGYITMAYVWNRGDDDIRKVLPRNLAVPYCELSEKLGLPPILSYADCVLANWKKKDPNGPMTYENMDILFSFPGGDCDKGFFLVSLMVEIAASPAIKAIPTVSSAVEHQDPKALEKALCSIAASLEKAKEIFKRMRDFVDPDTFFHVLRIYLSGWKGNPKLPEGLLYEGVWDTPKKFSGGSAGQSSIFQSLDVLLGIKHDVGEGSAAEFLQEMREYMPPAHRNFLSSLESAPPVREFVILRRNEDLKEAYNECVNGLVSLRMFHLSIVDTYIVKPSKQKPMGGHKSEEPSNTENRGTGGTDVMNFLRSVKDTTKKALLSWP

[16] = Chemical stability of compound in AIBN assessed as parent compound remaining measured after 24 hrs; format: physicochemical; conditions: read-out: Stability
[17] = Apparent permeability of compound; format: ADME; conditions: not told
[18] = Chemical stability of compound in 0.01 N NaOH assessed as parent compound remaining measured after 3 hrs; format: physicochemical; conditions: read-out: Stability
[19] = Oral bioavailability in dog; format: ADME, organism-based, Canis lupus familiaris; conditions: in vivo
[20] = Chemical stability of compound in H2O2 assessed as parent compound remaining measured after 24 hrs; format: physicochemical; conditions: read-out: Stability
[21] = Chemical stability of compound in 0.01 N HCl assessed as parent compound remaining measured after 3 hrs; format: physicochemical; conditions: read-out: Stability
EMT6 [22] = assay: Antitumor activity against mouse EMT6 cells xenografted in BALB/c mouse assessed as reduction in tumor volume at 100 mg/kg, po bid in presence of anti-PD1 at 5 mg/kg, […] and measured for weekly twice relative to control; format: functional; set-up: scale not given: the % may be the effect or the level left
[23] = Thermal stability of compound assessed as parent compound remaining measured after 3 hrs; format: physicochemical; conditions: read-out: Stability
[24] = Half life in dog; format: ADME, Canis lupus familiaris; conditions: in vivo
[25] = biological target: Indoleamine 2,3-dioxygenase 1 (Mus musculus, UniProt P28776); assay: Inhibition of mouse IDO1 preincubated for 30 mins followed by substrate tryptophan addition and measured after 60 mins by fluorescence based assay
Indoleamine 2,3-dioxygenase 1 (Mus musculus, UniProt P28776), sequence (P28776 whole entry): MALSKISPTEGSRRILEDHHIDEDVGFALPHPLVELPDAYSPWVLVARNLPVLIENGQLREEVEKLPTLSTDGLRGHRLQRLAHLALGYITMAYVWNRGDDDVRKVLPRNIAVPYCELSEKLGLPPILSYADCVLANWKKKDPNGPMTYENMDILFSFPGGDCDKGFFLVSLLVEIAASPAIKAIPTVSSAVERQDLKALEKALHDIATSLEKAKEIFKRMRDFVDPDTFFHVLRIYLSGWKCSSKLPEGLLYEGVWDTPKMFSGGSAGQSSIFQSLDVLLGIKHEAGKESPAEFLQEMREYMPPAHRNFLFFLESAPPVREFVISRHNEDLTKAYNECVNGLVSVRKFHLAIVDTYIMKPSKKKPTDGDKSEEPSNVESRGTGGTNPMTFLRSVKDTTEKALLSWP

[26] = Unbound clearance in dog; format: ADME, Canis lupus familiaris; conditions: in vivo
[27] = Chemical stability of compound in 0.1 N NaOH assessed as parent compound remaining measured after 24 hrs; format: physicochemical; conditions: read-out: Stability
[28] = Clearance in dog; format: ADME, Canis lupus familiaris; conditions: in vivo

## Nc1nonc1/C(=N/O)NC1Cc2cc(F)ccc21 (stereo not given)
[1]
  pIC50: 6.13
[2]
  pIC50: 6.82

## Nc1nonc1/C(=N/O)N[C@H]1Cc2ccc(F)cc21
[3]
  logD: 2.7
[4]
  CLint scaled: 7380 mL/min/kg
[5]
  MRT: 0.4 h
[6]
  clearance: 60 mL/min/kg

## Nc1nonc1/C(=N/O)NC1Cc2cc(F)c(F)cc21 (stereo not given)
[1]
  pIC50: 6.41
[2]
  pIC50: 7.12

## Nc1nonc1/C(=N/O)NC1CCCc2ccccc21 (stereo not given)
[1]
  pIC50: 5.56

## CC(=O)NCCNc1nonc1/C(=N/O)N[C@H]1Cc2ccc(F)cc21
[4]
  CLint scaled: 3550 mL/min/kg
[5]
  MRT: 0.4 h
[6]
  clearance: 51 mL/min/kg
[7]
  CLint scaled: 863 mL/min/kg

## Nc1nonc1/C(=N/O)NC1Cc2ccccc2C1
[1]
  pIC50: 4.36

## CC(=O)NCCSc1nonc1/C(=N/O)N[C@H]1Cc2ccc(F)cc21
[3]
  logD: 2.46
[4]
  CLint scaled: 1880 mL/min/kg
[5]
  MRT: 1 h
[6]
  clearance: 29 mL/min/kg
[7]
  CLint scaled: 354 mL/min/kg

## NS(=O)(=O)NCCSc1nonc1/C(=N/O)N[C@H]1Cc2ccc(F)cc21
[3]
  logD: 2.45
[4]
  CLint scaled: 977 mL/min/kg
[5]
  MRT: 2.5 h
[6]
  clearance: 14 mL/min/kg
[7]
  CLint scaled: 616 mL/min/kg

## NS(=O)(=O)NCCNc1nonc1/C(=N/O)N[C@H]1Cc2ccc(F)cc21
[3]
  logD: 2.4
[4]
  CLint scaled: 463 mL/min/kg
[5]
  MRT: 2 h
[6]
  clearance: 12 mL/min/kg
[7]
  CLint scaled: 462 mL/min/kg

## NC(=O)CNc1nonc1/C(=N/O)N[C@H]1Cc2ccc(F)cc21
[4]
  CLint scaled: 499 mL/min/kg
[5]
  MRT: 1.7 h
[6]
  clearance: 17 mL/min/kg
[7]
  CLint scaled: 523 mL/min/kg

## O=C(CNc1nonc1/C(=N/O)N[C@H]1Cc2ccc(F)cc21)NCCO
EMT6 [8]
  Activity: 15%
[3]
  logD: 1.9 to 2
CYP450
  pIC50: < 4.30
[9]
  Activity: Non-Toxic
[4]
  CLint scaled: 112 mL/min/kg
[10]
  CL free: 319 mL/min/kg
[11]
  pIC50: < 5.00
[12]
  remaining at 24 h: 96.2%
[13]
  bioavailability: 63%
[14]
  pEC50: < 4.52
[15]
  pIC50: 7.23
[16]
  remaining at 24 h: 77.1%
[17]
  Papp: 25 ×10⁻⁶ cm/s
[18]
  remaining at 3 h: 97.4%
[19]
  bioavailability: 67%
[20]
  remaining at 24 h: 97%
[21]
  remaining at 3 h: 98.1%
[5]
  MRT: 2.9 h
EMT6 [22]
  Activity: 79%
[23]
  remaining at 3 h: 88.4%
[24]
  half-life: 6 h
[6]
  clearance: 15 mL/min/kg
[25]
  pIC50: 7.55
[7]
  CLint scaled: 48 mL/min/kg
[26]
  CL free: 88 mL/min/kg
[27]
  remaining at 24 h: 81.5%
[28]
  clearance: 6 mL/min/kg

## O=C(CSc1nonc1/C(=N/O)N[C@H]1Cc2ccc(F)cc21)NCCO
[3]
  logD: 2
[4]
  CLint scaled: 2500 mL/min/kg
[5]
  MRT: 0.8 h
[6]
  clearance: 42 mL/min/kg
[7]
  CLint scaled: 108 mL/min/kg
